Where “and” joins values, the source holds several entries; their conditions need not be identical. Equal values may be shown once. Read-outs that look alike come from different tables or passages of the source. Residues, ends and D or L forms follow the SMILES beside them. No end group written: not given here.
Legend:
[1] = target: T1, HLA-DP4 (Homo sapiens, UniProt P04440+P20036); experiment: Cell-based competitive MHC-II binding assay with T2-DP4 cells
T1 construct: expressed in transfected cells; host or cells: T2 lymphoblastoid cell line transfected with HLA-DP4 (T2-DP4), gift of Prof; Naoto Hirano, University of Toronto
T1 sequence (P04440 30-258): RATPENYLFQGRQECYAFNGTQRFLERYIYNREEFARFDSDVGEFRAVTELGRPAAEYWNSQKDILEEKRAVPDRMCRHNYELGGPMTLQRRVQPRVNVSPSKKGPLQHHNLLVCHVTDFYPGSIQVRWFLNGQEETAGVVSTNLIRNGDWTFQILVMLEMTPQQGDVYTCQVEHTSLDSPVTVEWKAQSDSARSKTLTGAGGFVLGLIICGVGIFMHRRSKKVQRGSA
T1 sequence (P20036 29-260): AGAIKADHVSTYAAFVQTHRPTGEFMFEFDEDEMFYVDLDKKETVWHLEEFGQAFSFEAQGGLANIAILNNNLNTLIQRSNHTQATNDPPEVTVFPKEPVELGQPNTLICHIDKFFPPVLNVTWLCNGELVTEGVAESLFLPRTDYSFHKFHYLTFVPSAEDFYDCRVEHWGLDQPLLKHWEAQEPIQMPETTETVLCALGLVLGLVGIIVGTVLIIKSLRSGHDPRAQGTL

[2] = system: PDAC cell lines; experiment: MHC-II surface expression on PDAC cell lines by flow cytometry; assay type: cell-based, human; conditions: 48 h; for MHC-II expression, agent alone / MHC-II expression, treatment together with IFN-γ: 8988 T, FA6 and MiaPaca-2 cells; for MHC-II expression, treatment together with IFN-γ: IFN-γ 50 ng/mL
Protocol: All PDAC cell lines were stimulated with 50 ng/mL of the human recombinant IFN-γ (#570206; BioLegend) in T75 culture flasks for 48 h. As negative control, we co-incubated the cell lines in the medium alone. Where inhibitors were used, trametinib (#S2673; Selleckchem) or trichostatin A (TSA) (#T8552-1 MG; Sigma-Aldrich) at the indicated concentrations were added into the cultures with or without IFN-γ. After incubation, the cells were removed from the flasks by treatment with trypsin, cell suspensions were prepared and cells were stained with purified mouse IgG antibodies to CLIP (clone CerCLIP.1; #ab22606; Abcam, Cambridge, UK), and HLA-DR, DP, DQ (clone Tü39; #555556; BD) or isotype control (mouse IgG2a; #554645; BD) followed by Alexa Fluor 488-conjugated anti-mouse IgG, and APC-conjugated anti-PD-L1 (clone 29E.2A3; #329708; BioLegend) and processed for flow cytometry analysis.
(§1) For cell surface labeling, cell suspensions were incubated with antibodies for 30 min at room temperature. For intracellular staining, cells were fixed and permeabilized using a Leucoperm kit (Bio-Rad; #BUF09C) in accordance with the manufacturer’s guidelines. Prior to intracellular staining with anti-IFN-γ, cells were incubated overnight in the presence of 5 microgram per mL brefeldin A (Sigma-Aldrich; #B6542-5 MG). Cell viability was analyzed by Ethidium homodimer 1 and calcein-AM double-staining using LIVE/DEAD® Viability/Cytotoxicity Kit, for mammalian cells according to the manufacturer’s instructions (#L3224; Invitrogen). Flow cytometry was done using a FACSCalibur (Becton Dickinson, Heidelberg, Germany) or BD LSRII (Becton Dickinson) flow cytometer. The data were processed with the CellQuest software (Becton Dickinson, Heidelberg, Germany) and analyzed with the WinMDi 2.9 (Purdue University, USA).

[3] = system: MiaPaca-2 cells; experiment: CD4+ T-cell recognition of MiaPaca-2 cells (granzyme B ELISA); assay type: cell-based, human; conditions: MHC-II induced by IFN-γ in conjunction with trametinib; overnight, T-cell:tumor 5:1, granzyme B ELISA, 4 donors
Protocol: Figure 8. Trametinib and TSA enhance responsiveness to IFN-γ in PDAC cells. (A) 8988 T, FA6 and MiaPaca-2 cells were treated with IFN-γ or left untreated, in the presence or absence of the MEK inhibitor, trametinib and/or histone deacetylase inhibitor TSA at the indicated concentrations for 48 hours. The cells were then collected, stained with anti-MHC-II antibodies and analyzed by flow cytometry. All flow cytometry data were gated on viable, singlets and MFI values for MHC-II were normalized to the untreated cells (none). Data are from three independent experiments. (B) Allogenic activated CD4+ T-cells from 4 healthy donors were incubated overnight with MiaPaca-2 cells (T-cell:tumor ratio 5:1). Where indicated, the cultures were treated with blocking antibodies or isotype control (IgG). […] All data were analyzed by one-way ANOVA; * P < 0.05; ** p < 0.01; *** p < 0.001; **** p < 0.0001. […]
The cytokine IFN-γ and the cytolytic molecules granulysin and granzyme B were detected in supernatants of T-cell/tumor cell co-cultures using commercial ELISA kits (Human IFN gamma ELISA Ready-SET-Go!®, #88-7316-76, Affymetrix eBioscience; Human Granulysin DuoSet ELISA, #DY3138; and Human Granzyme B DuoSet ELISA, #DY2906-05, R&D Systems) in 96-well microtiter plates (Nunc Maxisorp, Rochester, NY, USA) following the manufacturer’s instructions.

[4] = system: CD4+ T-cells; experiment: Immunogenicity T-cell assay (intracellular IFN-γ in peptide-stimulated CD4+ T-cells); assay type: cell-based, human; conditions: for Immunogenicity, % of responses: percentage of the 9 donors responding; for Immunogenicity, No of responses: responding donors of 9 HLA-DP4-positive donors, 3 weekly stimulations with mDC pulsed at 10 μg/mL, challenge with peptide-pulsed T2-DP4, intracellular IFN-γ by FACS
Protocol: Immunogenicity of candidate HLA-DP4 neo-epitopes was performed using HLA-matched healthy donors’ autologous PBMCs. Briefly, mature DCs were pulsed with individual neo-epitopes at 10 μg/mL and co-cultured with autologous magnetic-sorted CD4+ T-cells (CD4 Microbeads Human, MACS Miltenyi; #130-045-101) in RPMI with 5% AB human serum (#H4522-100ML; Sigma-Aldrich), 10 units/mL penicillin–streptomycin, 2 mmol/L L-glutamine, 1% nonessential amino acid, IL-6 (#570802; BioLegend) (1000 U/mL) and IL-12 (#573002; BioLegend) (5 ng/mL). IL-2 (#589106; BioLegend) (30 U/mL) and IL-7 (#581902; BioLegend) (5 ng/mL) was added every 2 days. CD4+ T-cells underwent another two rounds of stimulation with peptide-pulsed mature DCs on day 7 and 14. Seven days after the third stimulation, CD4+ T-cells were challenged by overnight incubation with peptide-loaded T2-DP4 cells. As a control, CD4+ T-cells were incubated with T2-DP4 without peptide. Reactivity of the T cells was determined by intracellular IFN-γ (#502515; BioLegend) staining measured by flow cytometry. When Capan-1-derived neo-epitopes were tested, the peptide-stimulated CD4+ T-cells were challenged by overnight incubation with Capan-1 (MHC-II-negative), IFN-γ-treated Capan-1 cells (MHC-II-positive). Supernatants were collected and assessed for LDH (cytotoxicity), IFN-γ, granzyme B and granulysin. Where indicated, purified endotoxin-free anti-MHC class II (clone TÜ39; #555556; BD Bioscience, Chicago, IL, USA) antibodies were added to the co-cultures at 10 μg/mL.
as §1

[5] = T2-DP4 cells, overnight 37°C, competitor from 80 µM in 8 serial dilution steps, 500 nM FITC-labeled Oxy271-287, flow cytometry, n = 3 per peptide, read-out: IC50 (µM) Binding Assay

Molecule: GLQTLYSAALYHLTT [Peptide 93]
- IC50 [1, 5]: 21.6 µM

Molecule: CC(=O)Nc1cccc(-n2c(=O)n(C3CC3)c(=O)c3c(Nc4ccc(I)cc4F)n(C)c(=O)c(C)c32)c1 [trametinib]
- MHC-II expression, agent alone [2]: induced a slight increase in the expression of MHC-II
- MHC-II expression, treatment together with IFN-γ [2]: increased MHC-II expression compared with IFN-γ alone
- Susceptibility of MiaPaca-2 cells to CD4+ T-cell recognition [3]: rendered these cells susceptible to CD4+ T-cells recognition

Molecule: PRGKGLVYAQYLPKE [Peptide 104]
- IC50 [1, 5]: 38.2 µM

Molecule: FESEKYQDILMWNYR [Peptide 73]
- IC50 [1, 5]: 15.9 µM

Molecule: CC(/C=C/C(=O)NO)=C\[C@@H](C)C(=O)c1ccc(N(C)C)cc1 [TSA, trichostatin A]
- MHC-II expression, agent alone [2]: did not induce expression of MHC-II
- MHC-II expression, treatment together with IFN-γ [2]: enhanced MHC-II expression in FA6 cells, but not in 8988 T and MiaPaca-2 cells

Molecule: IGQVAAGAFANLRAL [Peptide 99]
- IC50 [1, 5]: 27.9 µM

Molecule: CSCC[C@H](NC(=O)[C@H](CCC(N)=O)NC(=O)[C@@H]1CCCN1C(=O)[C@@H](NC(=O)[C@H](CC(=O)O)NC(=O)[C@@H](N)CS)C(C)C)C(=O)N[C@@H](CC(C)C)C(=O)N[C@@H](CCCCN)C(=O)N[C@@H](CC(C)C)C(=O)N[C@@H](C)C(=O)N[C@@H](CS)C(=O)N[C@@H](Cc1ccc(O)cc1)C(=O)N[C@@H](Cc1ccc(O)cc1)C(=O)N[C@@H](CCC(=O)O)C(=O)N[C@@H](Cc1ccccc1)C(=O)O [Peptide 94] (H-CDVPQMLKLACYYEF-OH; N-terminus and C-terminus assumed)
- Immunogenicity, % of responses [4]: 0%
- Immunogenicity, No of responses [4]: 0 of 9

Molecule: HTCVKFYIEGFEPGK [Peptide 74]
- Immunogenicity, % of responses [4]: 11%
- Immunogenicity, No of responses [4]: one out of nine and 1 of 9

Molecule: HLVAFGISCFLGSGL [Peptide 77]
- Immunogenicity (in words) ([4]; 9 HLA-DP4-positive donors): most immunogenic
- Immunogenicity, % of responses [4]: 88%
- Immunogenicity, No of responses [4]: 8 of 9

Molecule: QPEGPYRVAGYSYVA [Peptide 87]
- IC50 [1, 5]: 31.9 µM

Molecule: SFQHLHRLTYLKLWY [Peptide 78]
- IC50 [1, 5]: 25.8 µM

Molecule: TDLHMLGAPVWAMLF [Peptide 96]
- IC50 [1, 5]: 10.9 µM

Molecule: YKAFSTCAFHLSVVS [Peptide 69]
- Binding to HLA-DP4 in cell-based binding assay (in words) ([1]; Peptides with IC50 < 200 µM were considered binders): not to bind

Molecule: MIYSLRNTEFKSALR [Peptide 84]
- IC50 [1, 5]: 24.5 µM

Molecule: FQHLHRLTYLKLWYN [Peptide 80]
- IC50 [1, 5]: 27.8 µM

Molecule: PMIYSLRNTEFKSAL [Peptide 92]
- IC50 [1, 5]: 6.36 µM

Molecule: SIDRTVMYYGLLFIQ [Peptide 88]
- IC50 [1, 5]: 71 µM

Molecule: TFRSPQKFGALIFLV [Peptide 91]
- IC50 [1, 5]: 24.8 µM

Molecule: TGLQTLYSAALYHLT [Peptide 102]
- IC50 [1, 5]: 14.3 µM

Molecule: QHLHRLTYLKLWYNH [Peptide 82]
- IC50 [1, 5]: 18.6 µM

Molecule: RNTIGQVAAGAFANL [Peptide 86]
- IC50 [1, 5]: 37 µM

Molecule: QGKYKAFSTCAFHLS [Peptide 70]
- IC50 [1, 5]: 31.5 µM

Molecule: KFESEKYQDILMWNY [Peptide 71]
- IC50 [1, 5]: 28.9 µM

Molecule: TAFTFQSSKEKLDVG [Peptide 109]
- Immunogenicity, % of responses [4]: 11%
- Immunogenicity, No of responses [4]: one out of nine and 1 of 9

Molecule: RNTGLQTLYSAALYH [Peptide 97]
- IC50 [1, 5]: 22.6 µM

Molecule: FNNFTVSFWLRVPKVSASHLE [TT 947-967, reference compound]
- IC50 [1]: 3.05 µM

Molecule: LKFWEDEGFVREEED [Peptide 100]
- Immunogenicity, % of responses [4]: 22%
- Immunogenicity, No of responses [4]: 2 of 9

Molecule: IVKGRFGEVWRGRWR [Peptide 103]
- Immunogenicity, % of responses [4]: 22%
- Immunogenicity, No of responses [4]: 2 of 9

Molecule: IYSLRNTEFKSALRR [Peptide 83]
- IC50 [1, 5]: 27.7 µM

Molecule: LLKFWEDEGFVREEE [Peptide 98]
- Immunogenicity, % of responses [4]: 11%
- Immunogenicity, No of responses [4]: one out of nine and 1 of 9

Molecule: GKGLVYAQYLPKEQY [Peptide 105]
- IC50 [1, 5]: 47.9 µM

Molecule: ALLKFWEDEGFVREE [Peptide 101]
- Immunogenicity, % of responses [4]: 44%
- Immunogenicity, No of responses [4]: 4 of 9

B1: IFN-γ: human recombinant IFN-γ (#570206; BioLegend) (protein, UniProt P01579 24-161, looked up)
Interferon gamma: QDPYVKEAENLKKYFNAGHSDVADNGTLFLGILKNWKEESDRKIMQSQIVSFYFKLFKNFKDDQSIQKSVETIKEDMNVKFFNSNKKKRDDFEKLTNYSVTDLNVQRKAIHELIQVMAELSPAAKTGKRKRSQMLFRG
- MHC class II surface expression ([2]; 14 PDAC and circulating tumor cell lines, 50 ng/mL): upregulated in these cell lines and de novo expression was observed in six additional cell lines
- MHC-II expression, agent alone [2]: induced low expression of MHC-II
